How the values were obtained:
[1] = test system: HCoV-OC43; test: OC43 virion RNA, Branched DNA assay, infected HCT8 cells; format: cell-based, human coronavirus OC43; set-up: reduction in OC43 vRNA: dose or concentration left out as unconfirmed; settings: for OC43 vRNA reduction siRNA and siGRP78: 10 nM siRNA along with 10 nM of siRNA targeting GRP78, HCT8 cells; for OC43 vRNA reduction: 10 nM siRNA
Description: The siRNAs were transfected in the HCT8 cells at a final concentration of 10 nM. A positive control for the inhibition of Coronavirus infection, Remdesivir (Rem), was used at 0.9 μM. The virion RNAs (vRNAs) were quantified using a Branched DNA assay specific for OC43 RNA.
The two siRNAs are those referred to by compound number (see Table 2) in the horizontal bar, along with siRNA targeting GRP78, siGRP78. A positive control for the inhibition of Coronavirus infection, Remdesivir (Rem), was used at 0.9 μM. The vRNAs were quantified using a Branched DNA assay specific for OC43 RNA.
The siRNAs listed in Table 2 were transfected into human colon epithelial HCT8 cells and the amount of OC43 virion produced was quantified. In these assays, the OC43 vRNA was quantified using a Branched DNA assay (QuantiGene gene expression assay: ThermoFisher). As a positive inhibitory control, the infected cells were treated with Remdesivir. […] Examples of the inhibition of OC43 vRNA are illustrated in FIG. 5A.
A combination of siRNAs targeting the host factor should more robustly reduce OC43 virion production. To illustrate this, HCT8 cells were transfected with 10 nM of siRNAs from Table 2 along with 10 nM of siRNA targeting GRP78. The virion RNAs produced were quantified using the Branched DNA assay. […] A combination of siRNAs targeting host factors GRP78, SRSF1, RPLP1 and RPLP2 can lead to significant reduction in the production of human Coronavirus virion RNA from infected cells.

[2] = test system: HBeAg; settings: 10 nM siRNA transfected into cells
Description: HBeAg in the cell culture media was assessed using ELISAs.
(§1) The ability of siRNAs targeting host factors that then results in the reduced production of multiple HBV molecules was evaluated by quantifying the amount of HBsAg, HBeAg, and Core protein produced by HepG2.2.15 cells after contacting with 10 nM of siRNAs that target HNRNPA2B1, GRP78, RPLP1, RPLP2, and SRSF1. We also contacted the cells with 5 nM of each set of siRNAs that targets both RPLP1 and RPLP2. The level of HBsAg, HBeAg, and Core were all determined using ELISAs.
(§2) The library of siRNAs of Example A5 were tested for the reduction of HBsAg secreted by HepG2.2.15 cells and in HBV virions.

[3] = test system: HBsAg; settings: read-out: EC50, Extracell. HBsAg reduction; HepG2.2.15 cells
Description: (§3) Cell viability was assessed by ATP levels determined using the CellTiter-Glo reagent and the results normalized to the level in mock-treated cells. HBsAg levels were quantified using ELISA and the data normalized to the level in the mock-treated cells.
The cellular proteins GRP78/BIP, SRSF1, HNRNPA2B1, RPLP1, and RPLP2 were identified as having roles in HBV replication and infection. Various siRNAs and combinations thereof targeting the RNAs encoding these proteins were contacted with HepG2.2.15 cells at a final concentration of 7.5 nM.
The EC50 values of several siRNAs and combinations of siRNAs targeting HNRNPA2B1, GRP78, RPLP1, RPLP2, and/or SRSF1 were determined with respect to the ability to reduce HBsAg levels in HepG2.2.15 cells.
as §1, §2

[4] = test system: HepG2.2.15 cells; test: HepG2.2.15 cell viability, CellTiter-Glo; settings: read-out: CC50, HepG2.2.15 cell viability; highest concentration tested 80 nM
Description: as §3
The effects on cell viability were quantified using the CellTiter-Glo reagent. All data were normalized to the amount of protein produced by mock-treated cells.
as §2

[5] = test system: GRP78 mRNA; test: Target mRNA reduction by RT-qPCR in HepG2.2.15 cells; format: cell-based, human; settings: 10 nM siRNA
Description: (§4) The siRNAs identified as described in Example A6 should function by a mechanism that includes being loaded in the RISC complex to cleave the cognate mRNA, leading to the degradation of the mRNA. To examine whether the siRNAs are effective in reducing the target mRNA, we used reverse transcription coupled with quantitative polymerase chain reaction (RT-qPCR) to assess the level of the target mRNA in HepG2.2.15 cells. All 32 siRNAs described in Table 2 reduced the mRNA by more than 75% (Table 3).

[6] = test system: GRP78 protein; test: Target protein reduction by Western blot in HepG2.2.15 cells; format: cell-based, human; settings: 10 nM siRNA, 72 h
Description: (§5) The host factors likely function in viral infection as proteins. Therefore, we determined whether the siRNAs could decrease the amounts of the target protein. Cell transfected with 10 nM of each siRNA for 72 h were lysed and the target proteins identified using Western blots probed with target-specific antibodies. The effective siRNAs described in Table 3 reduced the levels of the proteins by between 28 and 92% of the mock-treated samples. The reduction in the proteins is less than the reduction of the target mRNA, likely due to the proteins have prolonged half-life and that more time is needed for their degradation. […] We reason that this is due to RPLP1 and RPLP2 functioning as heterodimers such that a decrease of one protein increases the vulnerability of the other protein to degradation. Similar concomitant decrease of the proteins was reported by Campos et al. (17). Finally, the levels of two cellular proteins that are not targeted by the siRNAs, P54nrb and GAPDH, were unaffected.

[7] = test system: SRSF1 mRNA; test: Target mRNA reduction by RT-qPCR in HepG2.2.15 cells; format: cell-based, human; settings: 10 nM siRNA
Description: as §4

[8] = test system: SRSF1 protein; test: Target protein reduction by Western blot in HepG2.2.15 cells; format: cell-based, human; settings: 10 nM siRNA, 72 h
Description: as §5

[9] = test system: RPLP1 mRNA; test: Target mRNA reduction by RT-qPCR in HepG2.2.15 cells; format: cell-based, human; settings: 10 nM siRNA
Description: as §4

[10] = test system: RPLP1 protein; test: Target protein reduction by Western blot in HepG2.2.15 cells; format: cell-based, human; settings: 10 nM siRNA, 72 h
Description: as §5

[11] = test system: HCoV-OC43; test: OC43 virion RNA, RT-qPCR of the OC43 N gene, infected HCT8 cells; format: cell-based, human coronavirus OC43; set-up: dose or concentration left out as unconfirmed

| Molecule | OC43 vRNA reduction siRNA and siGRP78 [1] | OC43 vRNA reduction ([1]; HCT8 cells) | HBeAg reduction HepG2.2.15 cells [2] | EC50 [3] | CC50 [4] | Target RNA reduction in HepG2.2.15 cells [5] | Target protein reduction in HepG2.2.15 cells [6] | Target RNA reduction in HepG2.2.15 cells [7] | Target protein reduction in HepG2.2.15 cells [8] | Target RNA reduction in HepG2.2.15 cells [9] | Target protein reduction in HepG2.2.15 cells [10] | reduction in OC43 vRNA ([1]; HCT8 cells) | OC43 virion production remaining [11] |
| --- | --- | --- | --- | --- | --- | --- | --- | --- | --- | --- | --- | --- | --- |
| 21 (CUGUUACAAUCAAGGUCUATTUAGACCUUGAUUGUAACAGTT; siRNA; Self-complementary hairpin strand, chemistry not given here, further chemistry not given here; listed as Homo sapiens) [compound 21] | 90 ± 4% | 89 ± 8% | 61.5 ± 10% | 1.6 nM | > 80 nM | 90 ± 3% | 59 ± 2% |  |  |  |  |  |  |
| 22 (CAUCUACGUGGGUAACUUAUUUAAGUUACCCACGUAGAUGUU; siRNA; Self-complementary hairpin strand, chemistry not given here, further chemistry not given here; listed as Homo sapiens) [compound 22] | 85 ± 4% | 36 ± 3% | 33.5 ± 5% | 0.9 nM | > 80 nM |  |  | 71 ± 1% | 92 ± 20% |  |  |  |  |
| 23 (CUGGAUAACACUAAGUUUAUUUAAACUUAGUGUUAUCCAGUU; siRNA; Self-complementary hairpin strand, chemistry not given here, further chemistry not given here; listed as Homo sapiens) [compound 23] |  |  | 29.8 ± 3% | 3.9 nM | > 80 nM |  |  |  | 81 ± 11% |  |  |  |  |
| 25 (GAUCAAUGCCCUCAUUAAAGCTTUUUAAUGAGGGCAUUGAUCUUTT; siRNA; Self-complementary hairpin strand, chemistry not given here, further chemistry not given here; listed as Homo sapiens) [compound 25] | 88 ± 3% | 80 ± 7% | 60 ± 3% | 1.83 nM | > 80 nM |  |  |  |  | 74 ± 6% | 53 ± 12% |  |  |
| 26 (GAAGCAAAGAAAGAAGAAUCCTTAUUCUUCUUUCUUUGCUUCCATT; siRNA; Self-complementary hairpin strand, chemistry not given here, further chemistry not given here; listed as Homo sapiens) [compound 26] | 95 ± 1% | 91 ± 3% | 64 ± 3% | 0.376 nM | > 80 nM |  |  |  |  | 86 ± 1% | 72 ± 17% |  |  |
| 27 (GGUCUUUUUGACUAAACCUCUTTAGGUUUAGUCAAAAAGACCAATT; siRNA; Self-complementary hairpin strand, chemistry not given here, further chemistry not given here; listed as Homo sapiens) [compound 27] | 95 ± 2% | 94 ± 4% | 55 ± 5% | 0.11 nM | > 80 nM |  |  |  |  | 72 ± 7% | 51 ± 9% |  |  |
| 28 (UAUGGCCUCUGUCUCCGAGCUUUAGCUCGGAGACAGAGGCCAUAUU; siRNA; Self-complementary hairpin strand, chemistry not given here, further chemistry not given here; listed as Homo sapiens) [compound 28] | 71 ± 6% | 48 ± 12% | 30 ± 4% | 0.19 nM | > 80 nM |  |  |  |  | 80 ± 2% | 58 ± 7% |  |  |
| 29 (UGUCUCCGAGCUCGCCUGCAUUUAUGCAGGCGAGCUCGGAGACAUU; siRNA; Self-complementary hairpin strand, chemistry not given here, further chemistry not given here; listed as Homo sapiens) [compound 29] | 92 ± 3% | 87 ± 10% | 58 ± 3% | 0.386 nM | > 80 nM |  |  |  |  | 75 ± 1% | 52 ± 4% |  |  |
| 30 (AGGAUAAGAUCAAUGCCCUUCUUGAAGGGCAUUGAUCUUAUCCUUU; siRNA; Self-complementary hairpin strand, chemistry not given here, further chemistry not given here; listed as Homo sapiens) [compound 30] | 84 ± 6% | 90 ± 6% | 58 ± 4% | 0.69 nM | > 80 nM |  |  |  |  | 78 ± 3% | 45 ± 8% |  |  |
| 32 (AGAAGAAAGUGGAAGCAAAGAUUUCUUUGCUUCCACUUUCUUCUUU; siRNA; Self-complementary hairpin strand, chemistry not given here, further chemistry not given here; listed as Homo sapiens) [compound 32] | 86 ± 4% | 87 ± 4% | 32 ± 6% | 0.525 nM | > 80 nM |  |  |  |  | 80 ± 7% | 71 ± 8% |  |  |
| CCC(CC)COC(=O)[C@H](C)N[P@](=O)(OC[C@H]1O[C@@](C#N)(c2ccc3c(N)ncnn23)[C@H](O)[C@@H]1O)Oc1ccccc1 [Remdesivir, reference compound] |  |  |  |  |  |  |  |  |  |  |  | more than 98% | less than 5% |

Source: patent US11613750B2, “Methods of reducing virus molecule levels” (priority 2019, dated 2023)
